According to PubChem BioAssay AID210 (DTP/NCI, 2004):
Inconclusive results and toxic doses are left out. How the source made its calls: active means survival T/C of 150% or more; inactive means T/C below 125% in these data.

Tested on: CD2F1 mice, ip Colon 26 adenocarcinoma, median survival T/C
Test: NCI In Vivo Anticancer Drug Screen. Data for tumor model Colon 26 Adenocarcinoma (intraperitoneal) in CD2F1 (CDF1) mice
Conditions: endpoint: median survival time, higher = longer survival
Description: The antitumor activity of compounds was measured in mice bearing transplantable tumors. Survival or tumor size were measured and the results are expressed as the measurement made in the treated group (T) divided by the measurement made in the vehicle treated control group (C). The tumor model used in this assay is Colon 26 Adenocarcinoma (intraperitoneal) in CD2F1 (CDF1) mice

[1] = dose: 25.0 mg/kg/injection, schedule: Q04DX003 (ip), vehicle: Klucel (hydroxypropylcellulose) (HPC)
[2] = dose: 50.0 mg/kg/injection, schedule: Q04DX003 (ip), vehicle: Klucel (hydroxypropylcellulose) (HPC)
[3] = dose: 25.0 mg/kg/injection, schedule: Q04DX003 (ip), vehicle: saline with Tween-80
[4] = dose: 50.0 mg/kg/injection, schedule: Q04DX003 (ip), vehicle: saline with Tween-80
[5] = dose: 100.0 mg/kg/injection, schedule: Q04DX003 (ip), vehicle: saline with Tween-80
[6] = dose: 12.5 mg/kg/injection, schedule: Q04DX003 (ip), vehicle: Klucel (hydroxypropylcellulose) (HPC)

Measured: T/C

C#C[C@]1(O)CC[C@H]2[C@@H]3CCc4cc(O)ccc4[C@H]3CC[C@@]21C
inactive: [1] 103 % of control | [2] 100 % of control | dose: 100.0 mg/kg/injection, schedule: Q04DX003 (ip), vehicle: Klucel (hydroxypropylcellulose) (HPC) 96 % of control | dose: 200.0 mg/kg/injection, schedule: Q04DX003 (ip), vehicle: Klucel (hydroxypropylcellulose) (HPC) 90 % of control | dose: 400.0 mg/kg/injection, schedule: Q04DX003 (ip), vehicle: Klucel (hydroxypropylcellulose) (HPC) 86 % of control

C=CCNc1ccc(C)cc1
inactive: dose: 12.5 mg/kg/injection, schedule: Q04DX003 (ip), vehicle: saline with Tween-80 104 % of control | [3] 104 % of control | [4] 96 % of control | [5] 97 % of control

CO[C@H](C(=O)[C@@H](O)[C@@H](C)O)[C@@H]1Cc2cc3cc(OC4CC(OC5CC(O)C(O)C(C)O5)C(O)C(C)O4)c(C)c(O)c3c(O)c2C(=O)[C@H]1OC1CC(OC2CC(OC3CC(C)(O)C(O)C(C)O3)C(O)C(C)O2)C(O)C(C)O1 (some centres not stated)
inactive: dose: 0.25 mg/kg/injection, schedule: Q04DX003 (ip), vehicle: saline 96 % of control | dose: 0.5 mg/kg/injection, schedule: Q04DX003 (ip), vehicle: saline 98 % of control | dose: 1.0 mg/kg/injection, schedule: Q04DX003 (ip), vehicle: saline 98 % of control | dose: 2.0 mg/kg/injection, schedule: Q04DX003 (ip), vehicle: saline 100 % of control

COc1cccc2c1C(=O)c1c(O)c3c(c(O)c1C2=O)C[C@@](O)(C(=O)COC(=O)c1cccnc1)C[C@@H]3OC1CC(N)C(O)C(C)O1 (some centres not stated)
inactive: dose: 5.5 mg/kg/injection, schedule: Q07DX003 (iv), vehicle: other 113 % of control | dose: 8.5 mg/kg/injection, schedule: Q07DX003 (iv), vehicle: other 108 % of control | dose: 13.1 mg/kg/injection, schedule: Q07DX003 (iv), vehicle: other 114 % of control | dose: 17.0 mg/kg/injection, schedule: Q07DX002 (iv), vehicle: alkali diluted with saline 99 % of control | dose: 20.3 mg/kg/injection, schedule: Q07DX003 (iv), vehicle: other 115 % of control | dose: 26.0 mg/kg/injection, schedule: Q07DX002 (iv), vehicle: alkali diluted with saline 94 % of control

CC1=CCCC(C)(O)C2CC(CCC3(C)OC3CC1)C(C)C(=O)O2 (configuration not stated)
inactive: dose: 22.5 mg/kg/injection, schedule: Q04DX002 (ip), vehicle: Klucel (hydroxypropylcellulose) (HPC) 98 % of control | dose: 45.0 mg/kg/injection, schedule: Q04DX002 (ip), vehicle: Klucel (hydroxypropylcellulose) (HPC) 100 % of control | dose: 90.0 mg/kg/injection, schedule: Q04DX002 (ip), vehicle: Klucel (hydroxypropylcellulose) (HPC) 100 % of control | dose: 180.0 mg/kg/injection, schedule: Q04DX002 (ip), vehicle: Klucel (hydroxypropylcellulose) (HPC) 102 % of control

CC(CN1CC(=O)NC(=O)C1)N1CC(=O)NC(=O)C1 (configuration not stated)
inactive: [6] 100 % of control | [1] 98 % of control | [2] 102 % of control

CN(Cc1cnc2nc(N)nc(N)c2n1)c1ccc(C(=O)N[C@@H](CCC(=O)O)C(=O)O)cc1
inactive: dose: 30.0 mg/kg/injection, schedule: Q07DX003 (ip), vehicle: saline 105 % of control | dose: 44.0 mg/kg/injection, schedule: Q07DX003 (ip), vehicle: saline 88 % of control | dose: 44.0 mg/kg/injection, schedule: Q07DX003 (ip), vehicle: sodium bicarbonate 121 % of control | dose: 63.0 mg/kg/injection, schedule: Q07DX003 (ip), vehicle: saline 93 % of control

C/C(=C\c1ccccc1)[N+](=O)[O-]
inactive: dose: 3.12 mg/kg/injection, schedule: Q04DX003 (ip), vehicle: Klucel (hydroxypropylcellulose) (HPC) 91 % of control | dose: 6.25 mg/kg/injection, schedule: Q04DX003 (ip), vehicle: Klucel (hydroxypropylcellulose) (HPC) 97 % of control | [6] 96 % of control | [1] 90 % of control

CC(=O)O[C@@H]1[C@@H](O)C2=C3[C@]4(C)[C@@H]1C(C)(C)C(=O)C[C@@H]4[C@]3(O)[C@H](OC(C)=O)[C@@]1(C[C@@H]1C)C2=O
inactive: dose: 6.25 mg/kg/injection, schedule: Q04DX003 (ip), vehicle: distilled water + Tween-80 94 % of control | dose: 6.25 mg/kg/injection, schedule: Q04DX003 (ip), vehicle: saline with Tween-80 106 % of control | dose: 12.5 mg/kg/injection, schedule: Q04DX003 (ip), vehicle: distilled water + Tween-80 106 % of control | dose: 25.0 mg/kg/injection, schedule: Q04DX003 (ip), vehicle: distilled water + Tween-80 106 % of control | [3] 99 % of control | dose: 50.0 mg/kg/injection, schedule: Q04DX003 (ip), vehicle: distilled water + Tween-80 100 % of control | [4] 106 % of control | [5] 106 % of control
